Target: MlaFEDB (Escherichia coli, UniProt P63386)
Conditions: pH 8.0, 5 mM MgCl2, 150 mM NaCl, 0.5 mM DDM micelles; Hill n = 1.81 ± 0.35

Chain of MlaFEDB (P63386 whole entry): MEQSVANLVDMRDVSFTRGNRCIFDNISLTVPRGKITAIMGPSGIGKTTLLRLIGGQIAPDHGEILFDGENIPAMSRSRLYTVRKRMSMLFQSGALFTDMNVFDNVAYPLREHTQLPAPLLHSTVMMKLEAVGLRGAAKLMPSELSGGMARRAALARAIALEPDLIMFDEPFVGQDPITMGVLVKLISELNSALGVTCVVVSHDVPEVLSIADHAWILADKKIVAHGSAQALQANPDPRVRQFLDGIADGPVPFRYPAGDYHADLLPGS
Chain of MlaFEDB (P64606 whole entry partner): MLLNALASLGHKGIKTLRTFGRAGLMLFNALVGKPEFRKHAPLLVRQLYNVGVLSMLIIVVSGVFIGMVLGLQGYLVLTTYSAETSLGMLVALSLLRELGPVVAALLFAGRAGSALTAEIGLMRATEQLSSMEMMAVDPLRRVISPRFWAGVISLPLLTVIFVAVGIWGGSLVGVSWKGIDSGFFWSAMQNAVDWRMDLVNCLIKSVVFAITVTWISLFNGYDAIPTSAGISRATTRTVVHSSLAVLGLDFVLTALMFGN
Chain of MlaFEDB (P64604 whole entry partner): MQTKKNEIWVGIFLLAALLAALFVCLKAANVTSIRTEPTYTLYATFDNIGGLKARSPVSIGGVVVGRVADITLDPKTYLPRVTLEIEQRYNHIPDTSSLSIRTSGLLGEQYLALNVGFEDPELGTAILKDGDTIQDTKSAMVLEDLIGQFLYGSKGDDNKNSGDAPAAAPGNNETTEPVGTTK
Chain of MlaFEDB (P64602 whole entry partner): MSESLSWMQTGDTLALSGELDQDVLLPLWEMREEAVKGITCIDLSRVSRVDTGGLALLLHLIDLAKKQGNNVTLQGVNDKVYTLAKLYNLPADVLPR

Nc1ncnc2c1ncn2[C@@H]1O[C@H](COP(=O)(O)OP(=O)(O)OP(=O)(O)O)[C@@H](O)[C@H]1O [ATP]
Km: 200 ± 44.6 µM

— doi:10.1101/2020.06.06.138008v1 (biorxiv, 2020)
